Data from paper PMC11574760, “Altering Active-Site Loop Dynamics Enhances Standalone Activity of the Tryptophan Synthase Alpha Subunit” (ACS Catalysis, 2024).

Experiments:
Assay in all cases: steady-state kinetics, coupled assay with GAP dehydrogenase (NAD+)
[1] = molecular target: T1, ZmTrpA^L6BX1 (ZmTrpA_L6zmBX1) (Zea mays, UniProt B2Y0K4, T232V/V233N/T238P/S243N/G244P/K245R); type: biochemical; settings: retro-aldol cleavage; 100 mM EPPS/KOH pH 7.5, 180 mM KCl, 40 μM PLP, 6 mM NAD+, 20 mM Na3AsO4, 30 °C; no TrpB; cited from earlier work
T1 construct: gene TSA; ZmTrpA with loop 6 replaced by that of ZmBX1; without TrpB
T1 sequence (B2Y0K4 entry or part of it T232V/V233N/T238P/S243N/G244P/K245R): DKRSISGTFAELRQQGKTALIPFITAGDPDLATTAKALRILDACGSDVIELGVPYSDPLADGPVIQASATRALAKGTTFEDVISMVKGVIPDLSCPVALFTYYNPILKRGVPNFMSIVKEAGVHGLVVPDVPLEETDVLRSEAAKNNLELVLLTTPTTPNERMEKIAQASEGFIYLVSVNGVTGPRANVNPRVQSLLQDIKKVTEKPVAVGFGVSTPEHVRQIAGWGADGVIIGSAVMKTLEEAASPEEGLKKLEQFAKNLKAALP
From the text: steady-state kinetics, coupled assay with GAP dehydrogenase (NAD+) on ZmTrpA^L6BX1 (ZmTrpA_L6zmBX1)

ZmTrpA^L6BX1 + ZmTrpB = molecular target: T2, ZmTrpA^L6BX1 + ZmTrpB (Zea mays, UniProt B2Y0K4, T232V/V233N/T238P/S243N/G244P/K245R, form not given); type: biochemical; settings: retro-aldol cleavage, 100 mM EPPS/KOH pH 7.5, 180 mM KCl, 40 μM PLP, 6 mM NAD+, 20 mM Na3AsO4, 100 mM L-serine, 30 °C, variant ZmTrpA^SPM4-L6BX1
T2 construct: gene TSA; ZmTrpA with loop 6 of ZmBX1, in complex with ZmTrpB in excess; with Tryptophan synthase beta chain, chloroplastic
T2 sequence (P43284 46-443, stated change not applied, form open): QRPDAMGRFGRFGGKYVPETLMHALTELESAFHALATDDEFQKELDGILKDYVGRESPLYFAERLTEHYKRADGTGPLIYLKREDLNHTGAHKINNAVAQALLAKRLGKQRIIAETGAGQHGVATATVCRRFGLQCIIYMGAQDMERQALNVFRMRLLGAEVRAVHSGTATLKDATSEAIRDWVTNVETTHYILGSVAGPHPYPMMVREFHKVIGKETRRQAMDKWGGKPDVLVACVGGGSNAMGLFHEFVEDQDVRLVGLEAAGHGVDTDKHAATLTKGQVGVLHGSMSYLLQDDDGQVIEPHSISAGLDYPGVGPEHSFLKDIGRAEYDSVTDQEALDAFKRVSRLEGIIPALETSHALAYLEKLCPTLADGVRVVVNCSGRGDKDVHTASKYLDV
T2 sequence (B2Y0K4 entry or part of it T232V/V233N/T238P/S243N/G244P/K245R, form open): as the sequence (B2Y0K4 entry or part of it T232V/V233N/T238P/S243N/G244P/K245R) above
From the text: steady-state kinetics, coupled assay with GAP dehydrogenase (NAD+) on ZmTrpA^L6BX1 + ZmTrpB

ZmTrpA + ZmTrpB = molecular target: T3, ZmTrpA + ZmTrpB (Zea mays, UniProt B2Y0K4); type: biochemical; settings: retro-aldol cleavage, 100 mM EPPS/KOH pH 7.5, 180 mM KCl, 40 μM PLP, 6 mM NAD+, 20 mM Na3AsO4, 100 mM L-serine, 30 °C
T3 construct: gene TSA; alpha-beta-beta-alpha tryptophan synthase complex, TrpB in excess; construct details only in supplement; with Tryptophan synthase beta chain, chloroplastic
T3 sequence (B2Y0K4 entry or part of it): as the sequence (B2Y0K4 entry or part of it T232V/V233N/T238P/S243N/G244P/K245R) above, with V179T, N180V, P185T, N190S, P191G, R192K counted along it
T3 sequence (P43284 46-443, further chain): as the sequence (P43284 46-443, stated change not applied, form open) above
From the text: steady-state kinetics, coupled assay with GAP dehydrogenase (NAD+) on ZmTrpA + ZmTrpB

[2] = substrate: O=P(O)(O)OC[C@@H](O)[C@@H](O)c1c[nH]c2ccccc12; type: biochemical, Zea mays; settings: retro-aldol cleavage, 100 mM EPPS/KOH pH 7.5, 180 mM KCl, 40 μM PLP, 6 mM NAD+, 20 mM Na3AsO4, 30 °C, no TrpB
From the text: steady-state kinetics, coupled assay with GAP dehydrogenase (NAD+) on ZmBX1

| Km (ZmTrpA^L6BX1 + ZmTrpB) | Km (ZmTrpA + ZmTrpB; variant ZmTrpA^SPM4) | Km (ZmTrpA + ZmTrpB; variant ZmTrpA^SPM6) | Molecule | Km [1] | Km [2] | kcat [2] | kcat/Km [2] |
| --- | --- | --- | --- | --- | --- | --- | --- |
| 70 ± 12 µM | 134 ± 9 µM | 103 ± 13.1 µM | O=P(O)(O)OC[C@@H](O)[C@@H](O)c1c[nH]c2ccccc12 [indole-glycerol phosphate] | 3350 ± 340 µM |  |  |  |
|  |  |  | ZmBX1 (Zea mays) (protein, standalone enzyme; construct details only in supplement) SRPVSDTMAALMAKGKTAFIPYITAGDPDLATTAEALRLLDGCGADVIELGVPCSDPYIDGPIIQASVARALASGTTMDAVLEMLREVTPELSCPVVLLSYYKPIMSRSLAEMKEAGVHGLIVPDLPYVAAHSLWSEAKNNNLELVLLTTPAIPEDRMKEITKASEGFVYLVSVNGVTGPRANVNPRVESLIQEVKKVTNKPVAVGFGISKPEHVKQIAQWGADGVIIGSAMVRQLGEAASPKQGLRRLEEYARGMKNALP |  | 11 ± 1.3 µM | 5.2 ± 0.13 s⁻¹ | 474000 ± 56100 M⁻¹ s⁻¹ |
